Source: ChEMBL document CHEMBL1155112, “Alkaloids from the leaves of Uncaria rhynchophylla and their inhibitory activity on NO production in lipopolysaccharide-activated microglia” (J Nat Prod, 2008)
Active and inactive are the calls of the source. The calls are words filed in the database; no cut-off is given here.

How the values were obtained:
Microglia [1] = assay: Cell viability of LPS-stimulated rat cortical microglial cells after 48 hrs by MTT assay; format: functional, cell-based
Microglia [2] = assay: Cell viability of rat cortical microglial cells after 48 hrs by MTT assay; format: functional, cell-based
[3] = Inhibition of LPS-stimulated NO release in rat cortical microglial cells assessed as nitrite accumulation at 1 ug/ml after 48 hrs relative to LPS; format: functional; conditions: Microglia, values are per cent of control
[4] = Inhibition of LPS-stimulated NO release in rat cortical microglial cells assessed as nitrite accumulation at 10 ug/ml after 48 hrs relative to LPS; format: functional; conditions: Microglia, values are per cent of control
[5] = Inhibition of LPS-stimulated NO release in rat cortical microglial cells assessed as nitrite accumulation after 48 hrs; format: functional; conditions: Microglia
[6] = Inhibition of LPS-stimulated NO release in rat cortical microglial cells assessed as nitrite accumulation at 100 ug/ml after 48 hrs relative to LPS; format: functional; conditions: Microglia, values are per cent of control
[7] = Inhibition of LPS-stimulated NO release in rat cortical microglial cells assessed as nitrite accumulation at 3 uM after 48 hrs relative to LPS; format: functional; conditions: Microglia, values are per cent of control
[8] = Inhibition of NO release in LPS-stimulated rat cortical microglial cells assessed as nitrite accumulation at 30 uM after 48 hrs relative to LPS; format: functional; conditions: Microglia, values are per cent of control

Question: For `C=C[C@H]1C(O[C@@H]2O[C@H](CO)[C@@H](O)[C@H](O)[C@H]2O)OC=C2C(=O)N3CCc4c([nH]c5ccccc45)[C@@H]3C[C@H]21` (stereo partly specified) [VINCOSIDE LACTAM], which Activity (Microglia [1]) is on record?
Answer: inactive

Question: And the Activity (Microglia [2])?
Answer: inactive

Question: And the response, % of control at 1 µg/mL [3]?
Answer: 71.8%

Question: What about the response, % of control at 10 µg/mL [4] of the same compound?
Answer: 65.7%

Question: What about the IC50 [5] of the same compound?
Answer: 16.4 µM

Question: What about the response, % of control at 100 µg/mL [6] of the same compound?
Answer: 38.6%

Question: For `CC[C@H]1CN2CC[C@]3(C(=O)Nc4ccccc43)[C@@H]2C[C@@H]1/C(=C\OC)C(=O)OC` [RHYNCHOPHYLLINE], which Activity (Microglia [1]) is on record?
Answer: inactive

Question: What about the Activity (Microglia [2]) of the same compound?
Answer: inactive

Question: And the response, % of control at 1 µg/mL [3]?
Answer: 106%

Question: What about the response, % of control at 10 µg/mL [4] of the same compound?
Answer: 75.8%

Question: What about the IC50 [5] of the same compound?
Answer: 18.5 µM

Question: What about the response, % of control at 100 µg/mL [6] of the same compound?
Answer: 35.9%

Question: Which response, % of control at 10 µg/mL [4] does the source give for `Oc1ccc(/C=C/c2cc(O)cc(O)c2)cc1` [RESVERATROL] here?
Answer: 72.4%

Question: What about the IC50 [5] of the same compound?
Answer: 11.5 µM

Question: And the response, % of control at 3 µM [7]?
Answer: 92%

Question: And the response, % of control at 30 µM [8]?
Answer: 43.4%

Question: Which Activity (Microglia [1]) does the source give for `C=C[C@H]1CN2CC[C@@]3(C(=O)Nc4ccccc43)[C@@H]2C[C@@H]1/C(=C\OC)C(=O)OC` [ISOCORYNOXEINE] here?
Answer: inactive

Question: And the Activity (Microglia [2])?
Answer: inactive

Question: What about the response, % of control at 1 µg/mL [3] of the same compound?
Answer: 92.2%

Question: What about the response, % of control at 10 µg/mL [4] of the same compound?
Answer: 73.2%

Question: And the IC50 [5]?
Answer: 13.7 µM

Question: What about the response, % of control at 100 µg/mL [6] of the same compound?
Answer: 40.5%

Question: With `C=C[C@@H]1CN2CC[C@@]3(C(=O)Nc4ccccc43)[C@@H]2C[C@@H]1/C(=C\OC)C(=O)O` as the compound, how does the Activity (Microglia [1]) read?
Answer: inactive

Question: What about the Activity (Microglia [2]) of the same compound?
Answer: inactive

Question: What about the response, % of control at 1 µg/mL [3] of the same compound?
Answer: 98.8%

Question: And the response, % of control at 10 µg/mL [4]?
Answer: 107%

Question: What about the IC50 [5] of the same compound?
Answer: > 100 µM

Question: What about the response, % of control at 100 µg/mL [6] of the same compound?
Answer: 92.7%

Question: For `C=C[C@H]1CN2CC[C@]3(C(=O)Nc4ccccc43)[C@@H]2C[C@@H]1/C(=C\OC)C(=O)OC` [CORYNOXEINE], which Activity (Microglia [1]) is on record?
Answer: inactive

Question: And the Activity (Microglia [2])?
Answer: inactive

Question: What about the response, % of control at 1 µg/mL [3] of the same compound?
Answer: 86.9%

Question: What about the response, % of control at 10 µg/mL [4] of the same compound?
Answer: 74.5%

Question: What about the IC50 [5] of the same compound?
Answer: 15.7 µM

Question: And the response, % of control at 100 µg/mL [6]?
Answer: 37.9%

Question: Which Activity (Microglia [1]) does the source give for `C=C[C@@H]1CN2CC[C@]3(C(=O)Nc4ccccc43)[C@@H]2C[C@@H]1/C(=C\OC)C(=O)O` [18,19-DEHYDROCORYNOXINIC ACID B] here?
Answer: inactive

Question: What about the Activity (Microglia [2]) of the same compound?
Answer: inactive

Question: And the response, % of control at 1 µg/mL [3]?
Answer: 81.9%

Question: What about the response, % of control at 10 µg/mL [4] of the same compound?
Answer: 84.2%

Question: And the IC50 [5]?
Answer: > 100 µM

Question: And the response, % of control at 100 µg/mL [6]?
Answer: 88.9%

Question: What does the source list for `CC[C@H]1CN2CC[C@@]3(C(=O)Nc4ccccc43)[C@@H]2C[C@@H]1/C(=C\OC)C(=O)OC` [ISORHYNCHOPHYLLINE]?
Answer: Activity (Microglia [1]): inactive; Activity (Microglia [2]): inactive; response, % of control at 1 µg/mL [3]: 95.2%; response, % of control at 10 µg/mL [4]: 76.9%; IC50 [5]: 19 µM; response, % of control at 100 µg/mL [6]: 42.1%
